From publication PMC10522591, “Natural product P57 induces hypothermia through targeting pyridoxal kinase” (Nature Communications, 2023)
Where a chain is given by its changes, count along the chain named.

How the values were obtained:
pyridoxal kinase (PDXK) [1] = molecular target: T1, pyridoxal kinase (PDXK) (Homo sapiens, UniProt O00764); assay: initial velocity kinetics, ATP varied at fixed PL; format: biochemical
T1 construct: wild-type full-length human PDXK, N-terminal His tag
T1 sequence (O00764 1-312): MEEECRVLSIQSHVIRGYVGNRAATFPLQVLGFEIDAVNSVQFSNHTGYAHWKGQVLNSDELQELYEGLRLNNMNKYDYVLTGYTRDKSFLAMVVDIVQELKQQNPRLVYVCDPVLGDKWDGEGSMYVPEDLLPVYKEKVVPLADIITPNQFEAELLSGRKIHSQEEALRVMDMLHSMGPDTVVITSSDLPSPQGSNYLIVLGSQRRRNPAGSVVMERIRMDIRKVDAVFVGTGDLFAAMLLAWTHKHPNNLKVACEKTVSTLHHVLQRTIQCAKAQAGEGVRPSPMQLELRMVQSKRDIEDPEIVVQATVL

pyridoxal kinase (PDXK) [2] = molecular target: T2, pyridoxal kinase (PDXK) (Homo sapiens, UniProt O00764, D235A); assay: inhibition of purified mutant enzyme (Fig. S5g); format: biochemical
T2 construct: full-length human PDXK D235A, N-terminal His tag
T2 sequence (O00764 1-312 D235A): T1 sequence (O00764 1-312) with D235A

pyridoxal kinase (PDXK) [3] = molecular target: T3, pyridoxal kinase (PDXK) (Mus musculus, UniProt Q8K183); assay: competition of P57-Bio ([…]) affinity pull-down by P57 ([…]), Western blot; format: cell-based
T3 construct: endogenous, mouse brain lysate
T3 sequence (Q8K183 1-312): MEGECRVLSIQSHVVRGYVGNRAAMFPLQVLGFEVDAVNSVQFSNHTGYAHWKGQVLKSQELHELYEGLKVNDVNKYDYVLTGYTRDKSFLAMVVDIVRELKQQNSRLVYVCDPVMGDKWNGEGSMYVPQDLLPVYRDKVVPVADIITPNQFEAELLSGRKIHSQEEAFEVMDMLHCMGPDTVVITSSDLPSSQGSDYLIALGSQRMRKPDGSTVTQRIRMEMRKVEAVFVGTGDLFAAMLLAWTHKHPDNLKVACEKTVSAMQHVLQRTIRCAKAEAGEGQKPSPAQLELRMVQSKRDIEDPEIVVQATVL

pyridoxal kinase (PDXK) [4] = molecular target: T1, pyridoxal kinase (PDXK); assay: SPR (Biacore T200); also MST Kd =[…], and enzyme inhibition with EC50 […]; format: binding

Row | SMILES | initial velocity kinetics, ATP varied at fixed PL (pyridoxal kinase (PDXK) [1]) | inhibition of purified mutant enzyme (Fig. S5g) (pyridoxal kinase (PDXK) [2]) | competition of P57-Bio (2.0 μM) affinity pull-down by P57 (20.0 μM), Western blo (pyridoxal kinase (PDXK) [3]) | Kd (pyridoxal kinase (PDXK) [4]) [µM]
1 | Nc1ncnc2c1ncn2[C@@H]1O[C@H](COP(=O)(O)OP(=O)(O)OP(=O)(O)O)[C@@H](O)[C@H]1O [ATP] | PL concentration was fixed and the concentrations of ATP were varied showed that both Km and Vmax values decreased | – | – | –
2 | C/C=C(\C)C(=O)O[C@@H]1C[C@H]2[C@@H](CC=C3C[C@@H](O[C@H]4C[C@H](OC)[C@H](O[C@H]5C[C@H](OC)[C@H](O[C@@H]6O[C@H](C)[C@@H](O)[C@H](OC)[C@H]6O)[C@@H](C)O5)[C@@H](C)O4)CC[C@@]32C)[C@@]2(O)CC[C@H](C(C)=O)[C@@]12C [P57] | – | the D235A mutation can reduce the binding stability to a certain extent, and partly reducing the inhibitory activity | immunoblotting showed GSTP1 and PDXK, but not neuromodulin, were sensitive to competition by excess P57 | 3.5
